Tests used:
ACHN = test: Growth inhibition of human ACHN cells assessed as cell growth at 10 uM incubated for 48 hrs by sulforhodamine B assay relative to control; assay type: functional; conditions: read-out: Activity
[1] = target: Epidermal growth factor receptor (Homo sapiens, UniProt P00533); test: Inhibition of recombinant human C-terminal His/N-terminal GST-tagged EGFR (668 to 1210 residues) expressed in baculovirus infected Sf9 cells at 10 uM using biotin-labeled poly[Glu:Tyr] (4:1) as substrate after 30 mins by Kinase-Glo plus luminescence assay relative to control
Epidermal growth factor receptor, sequence (P00533 whole entry, the tested form may be a part): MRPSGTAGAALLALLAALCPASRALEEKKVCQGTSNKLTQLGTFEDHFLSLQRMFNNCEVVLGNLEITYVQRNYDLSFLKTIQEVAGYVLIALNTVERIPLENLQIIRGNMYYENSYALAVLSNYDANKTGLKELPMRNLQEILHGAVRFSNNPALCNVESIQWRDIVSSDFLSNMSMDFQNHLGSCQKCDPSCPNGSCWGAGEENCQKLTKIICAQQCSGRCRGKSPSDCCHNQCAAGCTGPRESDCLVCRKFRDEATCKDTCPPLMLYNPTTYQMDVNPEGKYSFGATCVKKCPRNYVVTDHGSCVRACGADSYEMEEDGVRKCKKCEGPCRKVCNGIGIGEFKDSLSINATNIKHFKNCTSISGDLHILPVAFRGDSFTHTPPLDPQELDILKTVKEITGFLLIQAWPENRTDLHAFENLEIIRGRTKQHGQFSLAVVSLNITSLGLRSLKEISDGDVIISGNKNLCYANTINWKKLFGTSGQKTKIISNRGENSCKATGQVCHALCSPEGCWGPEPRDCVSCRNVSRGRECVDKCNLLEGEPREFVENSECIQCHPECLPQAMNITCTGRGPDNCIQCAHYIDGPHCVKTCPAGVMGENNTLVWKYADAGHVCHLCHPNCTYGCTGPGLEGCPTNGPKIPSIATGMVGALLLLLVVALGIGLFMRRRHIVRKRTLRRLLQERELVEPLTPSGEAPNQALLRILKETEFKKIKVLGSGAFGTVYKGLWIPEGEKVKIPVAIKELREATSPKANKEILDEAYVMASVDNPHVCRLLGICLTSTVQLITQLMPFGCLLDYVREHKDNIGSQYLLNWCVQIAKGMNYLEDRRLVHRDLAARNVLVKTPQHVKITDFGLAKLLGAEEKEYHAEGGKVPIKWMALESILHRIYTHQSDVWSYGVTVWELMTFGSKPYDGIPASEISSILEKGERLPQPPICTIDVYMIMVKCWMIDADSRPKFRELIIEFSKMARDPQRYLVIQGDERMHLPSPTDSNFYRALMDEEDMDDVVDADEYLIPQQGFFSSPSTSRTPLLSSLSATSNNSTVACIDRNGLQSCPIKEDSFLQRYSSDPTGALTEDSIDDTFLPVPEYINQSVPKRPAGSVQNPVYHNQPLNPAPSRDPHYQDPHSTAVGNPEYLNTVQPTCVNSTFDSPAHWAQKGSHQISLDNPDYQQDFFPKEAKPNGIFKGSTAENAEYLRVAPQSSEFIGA

SR = test: Growth inhibition of human SR cells assessed as cell growth at 10 uM incubated for 48 hrs by sulforhodamine B assay relative to control; assay type: functional; conditions: read-out: Activity
SN12C = test: Growth inhibition of human SN12C cells assessed as cell growth at 10 uM incubated for 48 hrs by sulforhodamine B assay relative to control; assay type: functional; conditions: read-out: Activity
RXF 393 = test: Growth inhibition of human RXF393 cells assessed as cell growth at 10 uM incubated for 48 hrs by sulforhodamine B assay relative to control; assay type: functional; conditions: RXF 393, 48 h, read-out: Activity
HL-60(TB) = test: Growth inhibition of human HL-60(TB) cells assessed as cell growth at 10 uM incubated for 48 hrs by sulforhodamine B assay relative to control; assay type: functional; conditions: HL-60, 48 h, read-out: Activity
SF-295 = test: Growth inhibition of human SF295 cells assessed as cell growth at 10 uM incubated for 48 hrs by sulforhodamine B assay relative to control; assay type: functional; conditions: SF-295, 48 h, read-out: Activity
NCI-H23 = test: Growth inhibition of human NCI-H23 cells assessed as cell growth at 10 uM incubated for 48 hrs by sulforhodamine B assay relative to control; assay type: functional; conditions: NCI-H23, 48 h, read-out: Activity
SW-620 = test: Growth inhibition of human SW620 cells assessed as cell growth at 10 uM incubated for 48 hrs by sulforhodamine B assay relative to control; assay type: functional; conditions: SW-620, 48 h, read-out: Activity
M14 = test: Growth inhibition of human M14 cells assessed as cell growth at 10 uM incubated for 48 hrs by sulforhodamine B assay relative to control; assay type: functional; conditions: M14, 48 h, read-out: Activity
OVCAR-5 = test: Growth inhibition of human OVCAR5 cells assessed as cell growth at 10 uM incubated for 48 hrs by sulforhodamine B assay relative to control; assay type: functional; conditions: OVCAR-5, 48 h, read-out: Activity
OVCAR-8 = test: Growth inhibition of human OVCAR8 cells assessed as cell growth at 10 uM incubated for 48 hrs by sulforhodamine B assay relative to control; assay type: functional; conditions: OVCAR-8, 48 h, read-out: Activity
MOLT-4 = test: Growth inhibition of human MOLT4 cells assessed as cell growth at 10 uM incubated for 48 hrs by sulforhodamine B assay relative to control; assay type: functional; conditions: MOLT-4, 48 h, read-out: Activity
HT-29 = test: Growth inhibition of human HT-29 cells assessed as cell growth at 10 uM incubated for 48 hrs by sulforhodamine B assay relative to control; assay type: functional; conditions: HT-29, 48 h, read-out: Activity
HCT-116 = test: Growth inhibition of human HCT116 cells assessed as cell growth at 10 uM incubated for 48 hrs by sulforhodamine B assay relative to control; assay type: functional; conditions: HCT-116, 48 h, read-out: Activity
MCF7 = test: Growth inhibition of human MCF7 cells assessed as cell growth at 10 uM incubated for 48 hrs by sulforhodamine B assay relative to control; assay type: functional; conditions: MCF7, 48 h, read-out: Activity
UO-31 = test: Growth inhibition of human UO31 cells assessed as cell growth at 10 uM incubated for 48 hrs by sulforhodamine B assay relative to control; assay type: functional; conditions: UO-31, 48 h, read-out: Activity
SK-MEL-5 = test: Growth inhibition of human SK-MEL-5 cells assessed as cell growth at 10 uM incubated for 48 hrs by sulforhodamine B assay relative to control; assay type: functional; conditions: SK-MEL-5, 48 h, read-out: Activity
CAKI-1 = test: Growth inhibition of human Caki1 cells assessed as cell growth at 10 uM incubated for 48 hrs by sulforhodamine B assay relative to control; assay type: functional; conditions: CAKI-1, 48 h, read-out: Activity
SK-OV-3 = test: Growth inhibition of human SKOV3 cells assessed as cell growth at 10 uM incubated for 48 hrs by sulforhodamine B assay relative to control; assay type: functional; conditions: SK-OV-3, 48 h, read-out: Activity
A498 = test: Growth inhibition of human A498 cells assessed as cell growth at 10 uM incubated for 48 hrs by sulforhodamine B assay relative to control; assay type: functional; conditions: A498, 48 h, read-out: Activity
A549 = test: Growth inhibition of human A549/ATCC cells assessed as cell growth at 10 uM incubated for 48 hrs by sulforhodamine B assay relative to control; assay type: functional; conditions: A549, 48 h, read-out: Activity
HCC 2998 = test: Growth inhibition of human HCC2998 cells assessed as cell growth at 10 uM incubated for 48 hrs by sulforhodamine B assay relative to control; assay type: functional; conditions: HCC 2998, 48 h, read-out: Activity
SK-MEL-2 = test: Growth inhibition of human SK-MEL-2 cells assessed as cell growth at 10 uM incubated for 48 hrs by sulforhodamine B assay relative to control; assay type: functional; conditions: SK-MEL-2, 48 h, read-out: Activity
SNB-19 = test: Growth inhibition of human SNB19 cells assessed as cell growth at 10 uM incubated for 48 hrs by sulforhodamine B assay relative to control; assay type: functional; conditions: SNB-19, 48 h, read-out: Activity
UACC-62 = test: Growth inhibition of human UACC62 cells assessed as cell growth at 10 uM incubated for 48 hrs by sulforhodamine B assay relative to control; assay type: functional; conditions: UACC-62, 48 h, read-out: Activity
NCI/ADR-RES = test: Growth inhibition of human NCI/ADR-RES cells assessed as cell growth at 10 uM incubated for 48 hrs by sulforhodamine B assay relative to control; assay type: functional; conditions: read-out: Activity
MDA-MB-435 = test: Growth inhibition of human MDA-MB-435 cells assessed as cell growth at 10 uM incubated for 48 hrs by sulforhodamine B assay relative to control; assay type: functional; conditions: MDA-MB-435, 48 h, read-out: Activity
Hs-578T = test: Growth inhibition of human Hs 578T cells assessed as cell growth at 10 uM incubated for 48 hrs by sulforhodamine B assay relative to control; assay type: functional; conditions: read-out: Activity
RPMI-8226 = test: Growth inhibition of human RPMI8226 cells assessed as cell growth at 10 uM incubated for 48 hrs by sulforhodamine B assay relative to control; assay type: functional; conditions: RPMI-8226, 48 h, read-out: Activity
K562 = test: Growth inhibition of human K562 cells assessed as cell growth at 10 uM incubated for 48 hrs by sulforhodamine B assay relative to control; assay type: functional; conditions: K562, 48 h, read-out: Activity
NCI-H322M = test: Growth inhibition of human NCI-H322M cells assessed as cell growth at 10 uM incubated for 48 hrs by sulforhodamine B assay relative to control; assay type: functional; conditions: read-out: Activity
EKVX = test: Growth inhibition of human EKVX cells assessed as cell growth at 10 uM incubated for 48 hrs by sulforhodamine B assay relative to control; assay type: functional; conditions: read-out: Activity

Row | SMILES | growth at 10 µM (ACHN) [%] | inhibition [1] [%] | growth at 10 µM (SR) [%] | growth at 10 µM (SN12C) [%] | growth at 10 µM (RXF 393) [%] | growth at 10 µM (HL-60(TB)) [%] | growth at 10 µM (SF-295) [%] | growth at 10 µM (NCI-H23) [%] | growth at 10 µM (SW-620) [%] | growth at 10 µM (M14) [%] | growth at 10 µM (OVCAR-5) [%] | growth at 10 µM (OVCAR-8) [%] | growth at 10 µM (MOLT-4) [%] | growth at 10 µM (HT-29) [%] | growth at 10 µM (HCT-116) [%] | growth at 10 µM (MCF7) [%] | growth at 10 µM (UO-31) [%] | growth at 10 µM (SK-MEL-5) [%] | growth at 10 µM (CAKI-1) [%] | growth at 10 µM (SK-OV-3) [%] | further results
1 | Cc1oc2ncnc(Nc3cccc(F)c3)c2c1C(=O)O | 100 | 49 | 104 | 89.7 | 115 | 35.2 | 98.7 | 97.6 | 101 | 112 | 97.6 | 112 | 102 | 110 | 103 | 97.6 | 92.7 | 99.6 | 93.8 | 102 | growth at 10 µM (A498): 90.5%; growth at 10 µM (A549): 101%; growth at 10 µM (HCC 2998): 102%; growth at 10 µM (SK-MEL-2): 107%; growth at 10 µM (SNB-19): 94.6%; growth at 10 µM (UACC-62): 90.2%; growth at 10 µM (NCI/ADR-RES): 105%; growth at 10 µM (MDA-MB-435): 104%; growth at 10 µM (Hs-578T): 99.9%; growth at 10 µM (RPMI-8226): 107%; growth at 10 µM (K562): 98.5%; growth at 10 µM (NCI-H322M): 109%; growth at 10 µM (EKVX): 101%
2 | CCOC(=O)c1c(C)oc2ncnc(Nc3ccc(OCc4cccc(F)c4)cc3)c12 | 62.1 | 34 | 104 | 90.3 | 116 | 109 | 82.7 | 91.8 | 88.9 | 97.5 | 94 | 97.6 | 107 | 92.7 | 78.1 | 99.3 | 85 | 93.4 | 80.1 | 104 | growth at 10 µM (A498): 91.6%; growth at 10 µM (A549): 76.4%; growth at 10 µM (HCC 2998): 108%; growth at 10 µM (SK-MEL-2): 102%; growth at 10 µM (SNB-19): 99.5%; growth at 10 µM (UACC-62): 80.3%; growth at 10 µM (NCI/ADR-RES): 86.2%; growth at 10 µM (MDA-MB-435): 103%; growth at 10 µM (Hs-578T): 87.7%; growth at 10 µM (RPMI-8226): 104%; growth at 10 µM (K562): 107%; growth at 10 µM (NCI-H322M): 101%; growth at 10 µM (EKVX): 94.4%
3 | Cc1oc2ncnc(Nc3cccc(Cl)c3)c2c1CO | 76.7 | 69 | 62.2 | 88.6 | 85.4 | 54 | 93.2 | 87.5 | 93.2 | 94 | 74.3 | 108 | 86.2 | 90.5 | 81.6 | 89.7 | 56.9 | 87.9 | 53.7 | 101 | growth at 10 µM (A498): 51.6%; growth at 10 µM (A549): 82.1%; growth at 10 µM (HCC 2998): 93.2%; growth at 10 µM (SK-MEL-2): 98.1%; growth at 10 µM (SNB-19): 87.3%; growth at 10 µM (UACC-62): 76.4%; growth at 10 µM (NCI/ADR-RES): 86%; growth at 10 µM (MDA-MB-435): 93.1%; growth at 10 µM (Hs-578T): 96.2%; growth at 10 µM (RPMI-8226): 70.4%; growth at 10 µM (K562): 85.4%; growth at 10 µM (NCI-H322M): 95%; growth at 10 µM (EKVX): 64.4%

From ChEMBL document CHEMBL4251615, “Discovery of anilino-furo[2,3-d]pyrimidine derivatives as dual inhibitors of EGFR/HER2 tyrosine kinase and their anticancer activity” (Eur J Med Chem, 2018)
